For orientation: TGI means the concentration giving total growth inhibition. A low value points to greater sensitivity of the cells.

Test in all cases: DTP human tumour cell line panel, 48 h
Test [1] deals with DMS 114 small cell lung.
Test [2] concerns DMS 273 small cell lung.
Test [3] relates to LXFL 529 NSCLC.
Test [4] relates to RXF-631 renal.
The test system of test [5] is SNB-78 CNS.
In test [6] the test system is XF 498 CNS.
The subject of test [7] is HOP-18 NSCLC.
The test system of test [8] is KM20L2 colon.

The structures appear in SMILES notation.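 96-well plates; 48 h exposure; 5 concentrations. Endpoints by linear interpolation between flanking doses. Not reached: highest tested concentration assigned. At the TGI there is no net growth.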

With `CCN(CC)CCCCC1CCN(CC(=O)N2c3ccccc3NC(=O)c3ccccc32)CC1`, the total growth inhibition concentration (TGI) in test [1], in test [2], in test [3], in test [4], in test [5] and in test [6] was over 100 µM in each case.

As to `CCCCOC(=O)/C(CC(=O)C=C(C)C)=N\NS(=O)(=O)c1ccc(C)cc1`, the concentration for total growth inhibition (TGI) in test [1], in test [7], in test [8], in test [3], in test [5] and in test [6] was over 100 µM in each case.

For `O=C(O)Cc1cc(=O)oc2cc(O)c(Cl)cc12`, the TGI in test [1], in test [2], in test [7], in test [8], in test [3] and in test [6] was over 100 µM each time.

Turning to `Cc1ccc(S(=O)(=O)N/N=C2\C(=O)C3CC2C(Cl)C3Cl)cc1` (configuration not stated), the TGI in test [1], in test [2], in test [7], in test [8], in test [3] and in test [4] was over 100 µM each time.

For `CCOc1ccc(NCC(=O)N2CC(=O)Nc3ccccc32)cc1`, the concentration for total growth inhibition (TGI) in test [2], in test [7], in test [8], in test [3], in test [5] and in test [6] was over 100 µM in each case.

In the case of `CCCOc1ccc(/C=C/c2cc(OC)c(OC)c(OC)c2)cc1`, the TGI is 11.7 µM in test [2]; over 100 µM in test [7]; 0.406 µM in test [8]; over 100 µM in test [3]; over 100 µM in test [4]; over 100 µM in test [5]. In test [6], the TGI was found to be 84.9 µM.

With `CCN=C1NN=C(c2ccccc2)c2cc(Cl)ccc2N1`, the TGI is 43.9 µM in test [1]; 26.2 µM in test [2]; over 100 µM in test [7]; 41.7 µM in test [4]; 72 µM in test [5]; 45.2 µM in test [6].

As for `O=C1/C(=C/c2cccc([N+](=O)[O-])c2)COc2ccccc21`, the TGI in test [1] was 8.14 µM; in test [7], 24.8 µM; in test [8], over 100 µM; in test [3], 7.79 µM; in test [4] it was 31.7 µM; in test [5] it was over 100 µM.

Regarding `CC(=O)OC1[C@H]2c3cc4c(cc3CN3CCC(C[C@@H]1OC(C)=O)C23)OCO4` (some centres not stated), the TGI in test [1], in test [2], in test [8], in test [3] and in test [5] was over 75 µM each time.

For the compound `N#CCCc1nc2ccc(Br)cc2c(=O)n1-c1ccc(O)c([N+](=O)[O-])c1`, the TGI in test [8] was over 100 µM; in test [3], 40 µM; in test [4], 33.9 µM; in test [5], 76.7 µM; in test [6], 34.9 µM.

In the case of `CCc1cc(Cc2cc(CC)c(NC(=O)C3=CC(=O)CC(c4ccc(OC)cc4)O3)c(CC)c2Cl)c(Cl)c(CC)c1NC(=O)C1=CC(=O)CC(c2ccc(OC)cc2)O1` (configuration not stated), the TGI is 33.5 µM in test [1]; 37.6 µM in test [2]; 53.5 µM in test [7]; 63.4 µM in test [8]; 31.9 µM in test [3]; over 100 µM in test [4]. The compound further showed a TGI in test [5] of 85.1 µM.

On to `COc1ccc2c(c1)c(Cc1c(C)n(C)c3ccc(OC)cc13)c(C)n2C`, for which the TGI in test [1], in test [2], in test [7], in test [8], in test [3] and in test [5] was over 100 µM in each case. Besides, the TGI in test [6] is over 100 µM.

For `COC(=O)c1c/c(=N\NC(=O)CC(=O)Nc2ccccc2Cl)c2ccccc2o1`, the total growth inhibition concentration (TGI) in test [1], in test [2], in test [8], in test [3], in test [4] and in test [5] was over 100 µM in each case. The TGI in test [6] is over 100 µM.

In the case of `CC[C@@]1(O)C(=O)OCc2c1c(Cl)c1n(c2=O)Cc2cc3ccccc3nc2-1`, the TGI is 15.9 µM in test [1]; 8.12 µM in test [2]; over 28.5 µM in test [7]; over 100 µM in test [8]; over 100 µM in test [3]; 18.5 µM in test [4]. Moreover, the concentration for total growth inhibition (TGI) in test [5] is 84 µM; in test [6], 15.8 µM.

`Clc1ccc(C2=Nc3ccccc3SC(c3ccc(Cl)c(Cl)c3)C2)c(Cl)c1` (configuration not stated): the TGI in test [1] is 27.1 µM; in test [2], 30 µM; in test [8] it was 39.7 µM; in test [3] it was 29.2 µM; in test [5], 35.5 µM; in test [6], 26 µM.

With `CCOC(=O)/C(C#N)=C(O)/C(=C/c1ccccc1Cl)NC(=O)c1ccccc1`, the TGI in test [1], in test [2], in test [7], in test [8], in test [3] and in test [5] was over 100 µM throughout.

Consider `c1ccc(C2=NN(c3ccccc3)C3(S2)SC(c2ccccc2)(c2ccccc2)c2ccccc23)cc1` (configuration not stated), for which the TGI in test [1], in test [2], in test [8], in test [3], in test [5] and in test [6] was over 100 µM throughout.

For the compound `COc1ccc(CCN2CCC(C#N)(c3ccc(OC)c(OC)c3)CC2)cc1OC`, the TGI in test [1], in test [2], in test [7], in test [8], in test [3] and in test [6] was over 100 µM throughout.

With `C/C(C=O)=C1\C(O)C[C@]1(C)C1CC(C)(C)CC1O` (some centres not stated), the TGI in test [1], in test [2], in test [8], in test [3] and in test [5] was over 100 µM each time.

`O=C(Nc1ccc(C(F)(F)F)cc1[N+](=O)[O-])C(=O)C(C(=O)c1ccc2ccccc2c1)C1OC(=O)c2ccccc21` (configuration not stated): the TGI stood at 40.5 µM in test [1], 38.7 µM in test [8], 20.9 µM in test [3] and 35.4 µM in test [5].

Regarding `O=S(=O)(CC1=NC2C=CC=CC2N=C1)NCc1ccccc1` (configuration not stated), the concentration for total growth inhibition (TGI) in test [2], in test [7], in test [8], in test [3] and in test [6] was over 100 µM throughout.

On to `CC(=O)Nc1ccc(-c2nnc(SCC(=O)Nc3ccccc3Cl)o2)cc1`, for which the TGI in test [1], in test [2], in test [7], in test [8], in test [3] and in test [5] was over 100 µM in each case.

As for `Cc1ccc2sc3cc(=O)cc(C)c-3nc2c1`, the TGI in test [1], in test [2], in test [7], in test [8], in test [3] and in test [4] was over 100 µM throughout. In test [5], the TGI is over 100 µM.

`COc1ccc2c(OC)c3ccoc3nc2c1O`: the TGI in test [1], in test [7], in test [8], in test [3], in test [5] and in test [6] was over 100 µM each time.

With `COc1ccc(/C=C2/C(=O)N(C(=O)c3ccc(Cl)cc3)N=C2C)cc1OC`, the TGI in test [1], in test [8], in test [3], in test [5] and in test [6] was over 100 µM each time.

`O=C(CCN(CCO)CCO)Nc1ccc2c(c1)C(=O)c1ccc(NC(=O)CCN(CCO)CCO)cc1C2=O`: the TGI was 19.6 µM in test [1]; 22.1 µM in test [2]; over 100 µM in test [7]; over 100 µM in test [8]; 16.2 µM in test [3]; 54.8 µM in test [5]. Further, the TGI in test [6] was 25 µM.

For the origin of these results see PubChem BioAssay (NCI).
